Series [1] addresses T1, VAP-1 (Homo sapiens, UniProt Q16853).
T1 sequence (Q16853 1-763): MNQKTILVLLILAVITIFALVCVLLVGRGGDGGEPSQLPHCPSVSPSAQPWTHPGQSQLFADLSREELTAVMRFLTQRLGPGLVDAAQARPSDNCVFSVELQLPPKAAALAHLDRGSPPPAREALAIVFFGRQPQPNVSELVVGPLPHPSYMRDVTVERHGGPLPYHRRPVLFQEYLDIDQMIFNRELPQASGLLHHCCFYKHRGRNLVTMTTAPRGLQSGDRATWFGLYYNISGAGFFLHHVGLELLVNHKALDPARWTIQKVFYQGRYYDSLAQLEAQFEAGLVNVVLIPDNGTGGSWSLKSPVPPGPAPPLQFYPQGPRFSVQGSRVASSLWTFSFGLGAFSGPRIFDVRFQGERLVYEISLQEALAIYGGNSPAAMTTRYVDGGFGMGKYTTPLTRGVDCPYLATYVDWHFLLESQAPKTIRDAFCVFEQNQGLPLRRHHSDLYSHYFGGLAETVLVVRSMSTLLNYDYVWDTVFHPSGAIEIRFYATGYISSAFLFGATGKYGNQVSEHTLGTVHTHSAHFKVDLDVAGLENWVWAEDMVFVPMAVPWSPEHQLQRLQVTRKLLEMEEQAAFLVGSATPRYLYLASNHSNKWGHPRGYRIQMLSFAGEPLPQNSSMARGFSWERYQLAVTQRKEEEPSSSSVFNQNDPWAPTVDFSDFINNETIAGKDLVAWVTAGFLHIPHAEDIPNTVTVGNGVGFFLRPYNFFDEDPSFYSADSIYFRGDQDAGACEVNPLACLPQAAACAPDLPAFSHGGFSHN
The series can be described thus: SSAO (amine oxidase) activity of VAP-1 transfected cells, radiochemical [14C]-benzylamine and fluorometric Amplex Red H2O2 assays. It is filed as cell-based. Also on record: expressed in transfected cells; host or cells: Ax endothelial cells or CHO cells. To be noted: for % of inhibition: VAP-1 transfected Ax endothelial or CHO cells, benzylamine substrate, 30 min pre-incubation at 37° C., agents at 1 mg/ml and 100 μg/ml (concentration not given), representative of 2 to 5 experiments; for effect on enzymatic (SSAO) activity of VAP-1, in words: VAP-1 transfected cells, summary of Table I. On the procedure:
Amine oxidase activity was assayed radiochemically using [7-^14C]-benzylamine hydrochloride (spec. act. 57 mCi/mmol, Amersham) as a substrate. In brief, the cells (VAP-1 transfected Ax endothelial cells or VAP-1 transfected CHO cells and their mock transfected controls) were seeded onto gelatin-coated 24-well tissue culture plates and allowed to reach confluence. Prior to experiments, the cells were rinsed twice with RPMI 1640 and pre-incubated 30 min at 37° C. in 0.3 ml RPMI-1640 medium containing amikacin, tobramycin, gentamicin, streptomicin or geneticin (1 mg/ml). The reaction was initiated by addition of 6 μmol/L [^14C]-benzylamine (40000 dpm) and terminated after 1 hour by citric acid. The aldehydes were extracted into toluene containing diphenyloxazole and the formation of [^14C]-labelled benzaldehyde was quantified by scintillation counting.
SSAO activity of the cells was also independently measured using Amplex Red reagent (10-acetyl-3,7-dihydroxyphenoxazine; Molecular Probes Europe BV), a highly sensitive and stable probe for H2O2. Cultured cells (VAP-1 transfected Ax endothelial cells or VAP-1 transfected CHO cells and their mock transfected controls) were rinsed with Krebs Ringer phosphate glucose (KRPG; 145 mM NaCl, 5.7 mM sodium phosphate, 4.86 mM KCl, 0.54 mM CaCl2, 1.22 mM MgSO4, 5.5 mM glucose, pH 7.35) and pre-incubated 30 min at 37° C. in 200 μl KRPG containing amikacin, tobramycin, gentamicin, netilmicin, streptomycin, geneticin, glucosamine, mannosamine, galactosamine, or puromycin (1 mg/ml and 100 μg/ml). Catalytic reaction was initiated by addition of benzylamine as substrates and H2O2-detecting mixture containing horseradish peroxidase (final concentration 0.8 U/ml) and Amplex Red reagent (60 μM). The plates were incubated for 1-2 hours at 37° C. in the final volume of 250 μl, the bathing medium was clarified by centrifugation and placed in aliquots (200 μl) into white non-phosphorescent microplates (Cliniplate). Fluorescence intensity of the samples was measured (excitation, 545 nm; emission, 590 nm; Tecan ULTRA fluoropolarometer) and H2O2 concentration was calculated from calibration curves generated by serial dilutions of either standard H2O2 or resorufin, the product of the Amplex Red reaction (Molecular Probes).

For series [2], the target named is T1, VAP-1. The series can be described thus: Tobramycin serum concentration after intravenous injection in VAP KO+TG versus VAP KO mice (fluorescence polarization immunoassay). The settings on record: 3 mg/kg intravenously. Also on record: expressed in transfected cells; host or cells: mTIEhVAP-1 transgenic / mouse VAP-1 knockout mice (VAP KO+TG), expression on vasculature. It counts as in vivo, mouse. The text has this: The mTIEhVAP-1 line E35 mice expressing human VAP-1 on vasculature were crossed to VAP-1 knockout mice that were previously created by using conventional gene targeting techniques to replace the mouse VAP-1 gene with a nonfunctional mutant-allele. The mTIEhVAP-1 transgene, mouse VAP-1 mutant-allele and endogenous mouse VAP-1 allele were all identified by PCR screening of purified genomic DNA with specific primers and verified immunohistochemically with human and mouse VAP-1 antibodies.
These mice and VAP KO mice as controls received intravenously tobramycin 3 mg/kg and tobramycin concentration from serum was measured after 30 min, 1, 2 and 3 hours after injections using fluorescence polarization immunoassay.
In general terms: Polarisation of emitted light reports the rotation of a fluorescent probe.

As to `NCC[C@H](O)C(=O)N[C@@H]1C[C@H](N)[C@@H](O[C@H]2O[C@H](CN)[C@@H](O)[C@H](O)[C@H]2O)[C@H](O)[C@H]1O[C@H]1O[C@H](CO)[C@@H](O)[C@H](N)[C@H]1O` [Amikacin, amikacin], in series [1], the “% of inhibition” value is listed as 84% and the “effect on enzymatic (SSAO) activity of VAP-1, in words” value (from here on “effect on enzymatic (SSAO) activity”) was “diminished to variable extent”.

As for `N[C@H]1C(O)O[C@H](CO)[C@H](O)[C@@H]1O` (some centres unmarked) [Galactosamine, galactosamine], in series [1], the “% of inhibition” value was found to be 12% and the “effect on enzymatic (SSAO) activity” value is given as “did not significantly inhibit”.

`CN[C@@H]1[C@@H](O)[C@@H](O[C@@H]2[C@@H](O)[C@H](O[C@H]3O[C@H]([C@@H](C)O)[C@@H](O)[C@H](O)[C@H]3N)[C@@H](N)C[C@H]2N)OC[C@]1(C)O` [Geneticin, geneticin]: the “% of inhibition” value in series [1] turned out to be 46%.

As for `N[C@H]1C(O)O[C@H](CO)[C@@H](O)[C@@H]1O` (some centres unmarked) [Glucosamine, glucosamine], in series [1], the “% of inhibition” value came to 0% and the “effect on enzymatic (SSAO) activity” value is on record as “did not significantly inhibit”.

Regarding `N[C@@H]1C(O)O[C@H](CO)[C@@H](O)[C@@H]1O` (some centres unmarked) [Mannosamine, mannosamine], in series [1], the “% of inhibition” value is given as 20% and the “effect on enzymatic (SSAO) activity” value is “did not significantly inhibit”.

For the molecule `CCN[C@@H]1C[C@H](N)[C@@H](O[C@H]2OC(CN)=CC[C@H]2N)[C@H](O)[C@H]1O[C@H]1OC[C@](C)(O)[C@H](NC)[C@H]1O` [Netilmicin, netilmicin], in series [1], the “% of inhibition” value was 45% and the “effect on enzymatic (SSAO) activity” value is on record as “diminished to variable extent”.

Turning to `COc1ccc(C[C@H](N)C(=O)N[C@H]2[C@@H](O)[C@H](n3cnc4c(N(C)C)ncnc43)O[C@@H]2CO)cc1` [Puromycin, puromycin], in series [1], the “% of inhibition” value is reported as 59% and the “effect on enzymatic (SSAO) activity” value is listed as “diminished to variable extent”.

For `[H]/N=C(/N)N[C@H]1[C@H](O)[C@@H](O)[C@H](O[C@@H]2O[C@@H](C)[C@](O)(C=O)[C@H]2O[C@@H]2O[C@@H](CO)[C@H](O)[C@@H](O)[C@@H]2NC)[C@@H](N/C(N)=N\[H])[C@@H]1O` [Streptomicin, streptomycin], in series [1], the “% of inhibition” value was 5%.

On to `NC[C@H]1O[C@H](O[C@H]2[C@H](O)[C@@H](O[C@H]3O[C@H](CO)[C@@H](O)[C@H](N)[C@H]3O)[C@H](N)C[C@@H]2N)[C@H](N)C[C@@H]1O` [Tobramycin, tobramycin], for which the “tobramycin concentration in serum, VAP KO+TG mice compared with VAP KO mice” value in series [2] (at 2 and 3 hours, mice expressing human VAP-1 vs VAP KO mice) is listed as “lower concentrations”. Also, the “difference in serum tobramycin concentration between VAP KO mice and VAP KO+TG mice” value in series [2] (at 3 hours) is given as “two fold”. Moreover, in series [1], the “% of inhibition” value is recorded as 78% and the “effect on enzymatic (SSAO) activity” value is “diminished to variable extent”.

For gentamicin, in series [1], the “% of inhibition” value came out at 46% and the “effect on enzymatic (SSAO) activity” value is on record as “diminished to variable extent”.

These data come from patent US20070093433A1, “Aminoglycoside antibiotics for use as vap-1/ssao inhibitors” (priority 2003, published 2007).
